pIC50: −log10 of the molar value. The source made the active and inactive calls. The rule behind the calls is not given here.
What was measured:
RF/6A [1] = assay: Antiproliferative activity in rhesus monkey RF/6A cells measured after 24 to 72 hrs by MTT assay; type: functional, cell-based; conditions: Macaca mulatta
[2] = Antiproliferative activity against bFGF-stimulated BBEC by Coulter particle counter method; type: functional, Bos taurus
RF/6A [3] = assay: Antimigratory activity in rhesus monkey RF/6A cells measured after 24 hrs by wound assay; type: functional, cell-based; conditions: Macaca mulatta
HUVEC [4] = assay: Antimigratory activity in HUVEC assessed as inhibition of cell migration at 10 uM measured after 16 to 20 hrs by crystal violet staining-based microscopic analysis; type: functional; conditions: Homo sapiens
HUVEC [5] = assay: Cytotoxicity in HUVEC assessed as reduction in cell viability measured after 24 hrs by MTT assay; type: cell-based; conditions: Homo sapiens
HUVEC [6] = assay: Antimigratory activity in HUVEC assessed as inhibition of cell migration measured after 16 to 20 hrs by crystal violet staining-based microscopic analysis; type: functional; conditions: Homo sapiens
HUVEC [7] = assay: Antiproliferative activity in HUVEC assessed as reduction in cell viability measured after 72 hrs by MTT assay; type: functional, cell-based; conditions: Homo sapiens

Row | SMILES | pIC50 (RF/6A [1]) | pIC50 [2] | pIC50 (RF/6A [3]) | inhibition (HUVEC [4]) | pIC50 (HUVEC [5]) | pIC50 (HUVEC [6]) | pIC50 (HUVEC [7]) | inhibition (HUVEC [6])
1 | O=c1c(O)c(-c2ccc(O)c(O)c2)oc2cc(O)cc(O)c12 [QUERCETIN] | 4.15 | 5.27 | 4.40 | – | – | – | – | –
2 | COc1cc(O)c2c(=O)c(OC)c(-c3ccc4c(c3)OC(c3ccc(O)c(OC)c3)C(CO)O4)oc2c1 (stereo not drawn) | – | – | – | Active | 4.37 | 4.30 | 5.08 | –
3 | COc1cc(C2Oc3cc(-c4oc5cc(O)cc(O)c5c(=O)c4OC)ccc3OC2CO)ccc1O (stereo not drawn) | – | – | – | Active | 4.65 | 4.95 | 5.31 | –
4 | O=c1cc(-c2ccc(O)c(O)c2)oc2cc(OC3O[C@H](CO)[C@@H](O)[C@H](O)[C@H]3O)cc(O)c12 (stereo partly drawn) | – | 4.74 | – | – | – | – | – | –
5 | COc1cc(O)c2c(=O)c(O)c(-c3ccc4c(c3)OC(c3ccc(O)c(OC)c3)C(CO)O4)oc2c1 (stereo not drawn) | – | – | – | Active | 4.82 | 4.98 | 5.17 | –
6 | COc1cc(C2Oc3cc(-c4oc5cc(O)cc(O)c5c(=O)c4O)ccc3OC2CO)ccc1O (stereo not drawn) [DEHYDROSILYLBIN] | – | – | – | Active | 4.92 | 4.91 | 5.27 | –
7 | COCC1Oc2ccc(-c3oc4cc(O)cc(O)c4c(=O)c3O)cc2OC1c1ccc(O)c(OC)c1 (stereo not drawn) | – | – | – | Active | 4.55 | 4.98 | 5.28 | –
8 | COc1cc(C2Oc3cc(-c4oc5cc(O)cc(O)c5c(=O)c4OC(=O)c4cc(O)c(O)c(O)c4)ccc3OC2CO)ccc1O (stereo not drawn) | – | – | – | Active | 4.72 | 4.43 | 4.93 | –
9 | COc1cc(C2Oc3cc(-c4oc5cc(OC(=O)c6cc(O)c(O)c(O)c6)cc(O)c5c(=O)c4O)ccc3OC2CO)ccc1O (stereo not drawn) | – | – | – | Active | 5.47 | 5.33 | 5.80 | Dose-dependent effect
10 | COc1cc(C2Oc3cc(-c4oc5cc(O)cc(OC)c5c(=O)c4O)ccc3OC2CO)ccc1O (stereo not drawn) | – | – | – | Active | 4.20 | 4.95 | 5.21 | –
11 | O=c1cc(-c2ccc(O)c(O)c2)oc2cc(O)cc(O)c12 [LUTEOLIN] | – | 5.72 | – | – | – | – | – | –

Source: ChEMBL document CHEMBL4477189, “Effects of 2,3-Dehydrosilybin and Its Galloyl Ester and Methyl Ether Derivatives on Human Umbilical Vein Endothelial Cells” (J Nat Prod, 2016)
